Reference: US20250049927A1, “MODIFIED OLIGONUCLEOTIDE-DRUG CONJUGATE AND USE THEREOF” (INTEROLIGO CORPORATION., priority 2021, published 2025)

Assays:
[1] = system: BxPC-3 pancreatic cancer cell lines; assay: Pancreatic cancer cell growth inhibition, WST assay; format: cell-based; details: BxPC-3, 72 hours treatment, absorbance 450 nm
Protocol: The in vitro anticancer efficacy of the modified oligonucleotide-drug conjugates was verified using pancreatic cancer cell lines. Pancreatic cancer cell lines (BxPC-3) were treated with the above-described examples and comparative examples at concentrations of 0, 0.01, 0.1, 1, 10, 100, 500 and 1000 μM, and the specific IC50 measurement method and measurement results are as follows.
All cell lines were cultured in a 5% CO2 incubator at 37° C. The BxPC-3 pancreatic cancer cell lines were cultured using a medium containing 10% FBS and 1% antibiotics put into ATCC modified RPMI-1640 (Thermo Scientific, USA). The medium was replaced once every 2-3 days, and passage-cultured at a time when about 70-90% of a culture dish was filled with the cells. First, the cells were washed with PBS, then 0.05% Trypsin-EDTA was added and cultured at 37° C. for 2 minutes, and then a new medium was added to inactivate trypsin. The cells were separated from trypsin and medium using a centrifuge, then another new medium was added and passaged at a ratio of 1:4, followed by culturing the same. All cells were periodically checked for contamination by mycoplasma using a kit (Intron, Korea), and in vitro efficacy evaluation experiments were conducted using only cells in which contamination was not detected.
Using WST reagent (Dongin LS, Korea), an inhibitory effect on pancreatic cancer cell growth by drug treatment was confirmed and IC50 was measured. An orange coloring substance called formazan is produced in WST by mitochondrial dehydrogenase within cells, which is effective only in living cells. The specific test method is as follows.
The cells cultured by the above-described method were dispensed by 2×10^4 into each well of a 96-well culture vessel and cultured for 24 hours. The medium of the cells attached to the culture vessel was replaced with an ATCC modified RPMI-1640 medium containing 5% FBS, and samples of the above-described modified oligonucleotide-drug conjugates (Examples 1-7 and 9-12, and Comparative Example 1-7, respectively) were treated at concentrations of 0, 0.01, 0.1, 1, 10, 100, 500 and 1000 μM. After 72 hours, 10 μl of WST reagent was added to each well and reacted for 2 hours. The produced formazan was measured with an absorbance at 450 nm using a Glomax plate meter (Promega, USA), and IC50 was evaluated according to the protocol in the device. IC50 evaluation results and graphs illustrating the same are shown in Table 2 below and FIGS. 19 to 27 (in Table 2, M=Gemcitabine, and N=5-FdU).

in vivo = details: male, Sprague-Dawley, rat, iv, 2 mg/kg
Protocol: Specifically, Sprague-Dawley male rats (8 weeks old, purchased from Youngbio) were acclimatized for 1 week in the animal room of the Catholic University Songsim Campus, and then pharmacokinetic experiments were performed. Rats were induced with isoflurane, an inhalation anesthetic, and PE50 (polyethylene tubing, Clay Adams, Becton Dickinson, NJ, USA) was inserted into the carotid (for blood collection) and jugular vein (for drug administration), followed by suturing with suture, and then end portions thereof were fixed to the back of the neck. During the surgery, anesthesia was maintained using ether, and about 0.5 mL of physiological saline solution containing heparin (20 units/mL) was injected to prevent blood from coagulating in the cannula. After completing the surgery, each rat was placed in a metabolic cage and allowed to fully recover from the anesthetic (for 4-5 hours). Then, the rats were divided into three groups of a group administered with Example 9 (IO176) alone (n=6), and a group administered with MMAE alone (n=7), and a group administered with gemcitabine alone (n=6), and each sample (Example 9, MMAE alone, gemcitabine alone) was administered into the rats. All of Example 9, MMAE and gemcitabine were dissolved in physiological saline at 2 mL per kg of body weight and administered into the jugular vein at doses of 40 mg/kg, 4 mg/kg and 2 mg/kg, respectively. When collecting blood, in order to prevent gemcitabine in 0.2 mL of blood from being converted into metabolites by cytidine deaminase, a light-shielding Eppendorf tube was prepared in which 2 μL of a solution containing tetrahydrouridine (hereinafter referred to as THU), a cytidine deaminase inhibitor, dissolved in distilled water at a concentration of 10 mg/mL was added in advance. […] Immediately after completing the blood collection, the plasma that had been stored in an ice-bath was quickly centrifuged at 4° C., and 100 μL of the plasma was dispensed into the light-shielding Eppendorf tube. The dispensed plasma was quickly stored in an ice-bath and maintained at −80° C. until LC-MS/MS analysis was performed. After collection of blood from the carotid, the rats were euthanized in a CO2 gas chamber.
• Analysis equipment: Agilent 1290 series HPLC, Qtrap 5500 LC-MS/MS • Detector: Tandem mass spectrometer (triple quadrouple type) • Ion source: Electrospray ionization (positive ion mode) • Desolvation temperature: 500° C. • Nebulizing gas: Nitrogen, Collision gas: Nitrogen • Quantitation: MRM (multiple reaction monitoring) mode • Stationary phase: Hypersil gold C18 column (2.1×100 mm, 1.9 μm, Thermo) Fisher Scientific Inc., Boston, USA) • Stationary phase temperature: 40° C. • Mobile phase: Distilled water (A) and acetonitrile (B) respectively containing 0.1% formic acid (95:5, v/v) (see [Table below) • Flow rate: 0.22 mL/min • Mass parameters: See [Table 8] below (CE: Collision energy)
Each of gemcitabine and dFdU standard product was dissolved in distilled water to prepare 400 μg/mL and 700 μg/mL of storage solutions and store them frozen. Then, the storage solutions were diluted with tertiary distilled water to prepare working solutions so that the concentrations were 0.200, 0.400, 0.800, 2.00, 10.0 and 40.0 μg/mL, respectively, followed by storing them in a refrigerator. 5′-Deoxy-5-fluorocytidine, an internal standard (IS), was dissolved in acetonitrile to prepare 50 ng/mL of working solution. The working solution of gemcitabine and dFdU was added to rat blank plasma containing THU to prepare standard plasma samples so that the plasma concentrations of gemcitabine and dFdU were 10, 20, 40, 100, 500 and 2000 ng/mL, respectively.
150 μL of 5′-Deoxy-5-fluorocytidine (50 ng/mL), the internal standard dissolved in acetonitrile, was added to 20 μL of rat plasma, and vortexed for 10 minutes, followed by centrifuging at 14,000 rpm at 4° C. for 5 minutes.

| Compound | IC50 [1] | further results |
| --- | --- | --- |
| Comparative Example 6: DM1 conjugated to U of GGTGGTGGTGGTUGTGGTGGTGGTGG (SEQ ID NO: 3); linker -acrylamide-C6-NH-SMCC- (DNA ggtggtggtggtngtggtggtggtgg; DM1 via acrylamide-C6-NH-SMCC linker; modified_base 13 OTHER; deoxyuridine(dU)) | 3.01 µM |  |
| Example 7 (GGTGGTGGTGGTTGNGGTGGTGGNGG; paclitaxel via acrylamide-C6-NH-succinic acid linker on U; modified_base 15 OTHER; deoxyuridine(dU); modified_base 24 OTHER; gemcitabine) | 0.11 µM |  |
| Example 1: paclitaxel conjugated to U of GGTGGTGGTGGUMGTGGTGGTGGTGG (SEQ ID NO: 4), M=Gemcitabine; linker -acrylamide-C6-NH-succinic acid- (DNA GGTGGTGGTGGNNGTGGTGGTGGTGG; paclitaxel via linker; gemcitabine at M; modified_base 12 OTHER; deoxyuridine(dU); modified_base 13 OTHER; Gemcitabine) | 2.21 µM |  |
| Example 2 (GGTGGTGGTGGNTNTGGTGGTGGTGG; paclitaxel via acrylamide-C6-NH-succinic acid linker; modified_base 12 OTHER; deoxyuridine(dU); modified_base 14 OTHER; gemcitabine) | 0.23 µM |  |
| Example 11: DM1 conjugated to U of GGTGGTGGTGGMUGMGGTGGTGGTGG (SEQ ID NO: 8), M=Gemcitabine; linker -acrylamide-C6-NH-SMCC- (DNA GGTGGTGGTGGNNGNGGTGGTGGTGG; gemcitabine nucleotides; DM1 via SMCC linker; modified_base 13 OTHER; deoxyuridine(dU); modified_base 12 OTHER; gemcitabine; modified_base 15 OTHER) | 26.7 µM |  |
| Comparative Example 2 (GGTGGTGGTGGTTGNGGTGGTGGTGG; paclitaxel conjugate; modified_base 15 OTHER; deoxyuridine(dU)-acrylamide-C6-NH2) | 4.59 µM |  |
| Example 3 (GGTGGTGGTGGTNNTGGTGGTGGTGG; paclitaxel via acrylamide-C6-NH-succinic acid linker on U; modified_base 13 OTHER; deoxyuridine(dU); modified_base 14 OTHER; gemcitabine) | 1 µM |  |
| Comparative Example 3 (GGTGGTGGTGGTNGTGGTGGTGGTGG; paclitaxel via acrylamide-C6-NH-succinic acid linker; modified_base 13 OTHER; deoxyuridine(dU)-acrylamide-C6-NH2) | 0.04 µM |  |
| Nc1ccn([C@@H]2O[C@H](CO)[C@@H](O)C2(F)F)c(=O)n1 [Gemcitabine, 2′,2′-difluoro-2′-deoxycytidine] |  | Vd (in vivo; in vivo): 2.73 ± 1.22 L/kg; AUC(0-inf) (in vivo; plasma): 7500 ng·h/mL; AUC(0-t) (in vivo; plasma): 7300 ng·h/mL; MRT (in vivo; plasma): 5.7 h; clearance (in vivo; plasma): 4.77 ± 1.43 mL/min/kg; half-life (in vivo; plasma): 6.8 ± 2.78 h |
| Comparative Example 1: control aptamer GGTGGTGGTGGTTGTGGTGGTGGTGG (SEQ ID NO: 1) | 89.9 µM |  |
| Example 6: paclitaxel conjugated to U of GGTGGTGGTGGTUGTGGTGGTGGMGG (SEQ ID NO: 9), M=Gemcitabine; linker -acrylamide-C6-NH-succinic acid- (DNA GGTGGTGGTGGTNGTGGTGGTGGNGG; paclitaxel via linker; gemcitabine at M; modified_base 13 OTHER; deoxyuridine(dU); modified_base 24 OTHER; gemcitabine) | 0.14 µM |  |
